Results from article PMC3973950, “Synthesis of 5-arylidine amino-1,3,4-thiadiazol-2-[(N-substituted benzyol)]sulphonamides endowed with potent antioxidants and anticancer activity induces growth inhibition in HEK293, BT474 and NCI-H226 cells” (Medicinal Chemistry Research, 2013).

Columns and labels:
[1] = Nitric oxide radical scavenging (sodium nitroprusside, Griess reaction); type: biochemical; conditions: Conc. ± SD; standard curcumin; read-out: IC50 inhibitory concentration, Nitric oxide radical
Method: Nitric oxide generated from sodium nitroprusside in aqueous solution at physiological pH interacts with oxygen to produce nitrite ions, which were measured by the Griess reaction (Marcocci et al., [1994]; Green et al., [1982]). Scavenger of nitric oxide competes with oxygen leading to reduced production of nitric oxide (Mondal et al., [2006]). The reaction mixture (3 mL) containing sodium nitroprusside (10 mM) in phosphate-buffered saline (PBS) and the compounds in different concentrations (10, 20, 30, 40, 50 and 100 μg) were incubated at 25 °C for 150 min. At every 30-min interval, the incubated sample (0.5 mL) was removed and Griess reagent (1 % sulphanilamide, 0.1 % naphthylethylene diamine dihydrochloride in 2 % H3PO4) (0.5 mL) was added. The absorbance of the chromophore formed was measured at 546 nm. All the analyses were performed in triplicate, and the results were averaged. The percentage inhibition of nitric oxide generated was measured by comparing the absorbance values of control and test.

[2] = tested on: HEK 293, M468 and NCI-H226; assay: In vitro cytotoxicity by MTT assay, summary over all cell lines; type: cell-based; conditions: on all cell lines
Summary of the method: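 First, trypsinized cells went into wells at roughly 10,000 per well for 24 h. Next, medium was replaced with test compounds for 72 h at 37 °C. Finally, MTT was added for 4 h and the propanol-solubilized formazan read at 490 nm.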

Row | IC50 [1] | SMILES | cytotoxic activity compared with all synthesized compounds [2]
1 | 155 ± 17.6 µM | O=C(NS(=O)(=O)c1nnc(N=Cc2ccc(O)cc2)s1)c1ccccc1 [Compound 9e, N-({5-[(4-Hydroxybenzylidene)amino]-1,3,4-thiadiazol-2-yl}sulfonyl)benzamide] | 
2 | 52.6 ± 16.7 µM | O=C(NS(=O)(=O)c1nnc(N=Cc2ccc(Cl)cc2)s1)c1ccccc1 [Compound 9b, N-({5-[(4-Chlorobenzylidene)amino]-1,3,4-thiadiazol-2-yl}sulfonyl)benzamide] | more potent
3 |  | COc1cc(C=Nc2nnc(S(=O)(=O)NC(=O)c3ccccc3)s2)ccc1O [Compound 9g, N-({5-[(4-Hydroxy-3-methoxybenzylidene)amino]-1,3,4-thiadiazol-2-yl}sulfonyl)benzamide] | less activity
4 | 81.9 ± 10.4 µM | COc1ccccc1C=Nc1nnc(S(=O)(=O)NC(=O)c2ccccc2)s1 [Compound 9c, N-({5-[(2-Methoxybenzylidene)amino]-1,3,4-thiadiazol-2-yl}sulfonyl)benzamide] | more potent
5 | 104 ± 7.5 µM | O=C(NS(=O)(=O)c1nnc(N=Cc2ccccc2)s1)c1ccccc1 [Compound 9a, N-{[5-(Benzylidenamino)-1,3,4-thiadiazol-2-yl]sulphonyl} benzamide] | 
6 | 53 ± 6.74 µM | COc1ccc(C=Nc2nnc(S(=O)(=O)NC(=O)c3ccccc3)s2)cc1 [Compound 9d, N-({5-[(4-Methoxybenzylidene)amino]-1,3,4-thiadiazol-2-yl}sulfonyl)benzamide] | 
7 | 38 ± 11.8 µM | O=C(NS(=O)(=O)c1nnc(N=Cc2ccccc2O)s1)c1ccccc1 [Compound 9f, N-({5-[(2-Hydroxybenzylidene)amino]-1,3,4-thiadiazol-2-yl}sulfonyl)benzamide] | 
